Laboratory results as given in BindingDB's records for patent US12384753 (Enanta Pharmaceuticals, 2025).

The compounds below were run against T1, 17-beta-hydroxysteroid dehydrogenase 13 (Homo sapiens, UniProt Q7Z5P4) (assay: HSD17B13 rapid-fire mass spectrometry assay (RF/MS assay)).
T1 sequence (Q7Z5P4 whole entry): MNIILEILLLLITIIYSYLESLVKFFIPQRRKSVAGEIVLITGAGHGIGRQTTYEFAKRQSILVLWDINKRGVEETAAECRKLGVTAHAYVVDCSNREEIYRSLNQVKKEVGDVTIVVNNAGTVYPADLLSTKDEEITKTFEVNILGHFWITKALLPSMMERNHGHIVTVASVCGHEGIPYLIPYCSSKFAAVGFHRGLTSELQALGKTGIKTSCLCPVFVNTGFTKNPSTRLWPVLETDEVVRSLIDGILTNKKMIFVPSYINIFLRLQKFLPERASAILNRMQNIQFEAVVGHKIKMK
Text: Recombinant human HSD17B13 was expressed and purified from sf9 cells at Charles River Labs (Saffron Walden, UK). Leukotriene B4 (Catalog #71160-24-2) and 12-oxoleukotriene B4 (Catalog #20140) were purchased from Cayman Chemicals (Ann Arbor, Michigan.). NAD+ (Catalog #N8285), BSA (Catalog #A7030), DMSO (Catalog #D2650), and Tween-20 (Catalog #11332465001) were purchased from Sigma (St. Louis, MO). Formic acid (Catalog #28905) was from ThermoFisher Scientific and 384 deep well PP microplates (Catalog #784261) were from Greiner Bio-One. In a typical IC50 assay performed in a 384w PP microplate, test compounds (0-100 μM) were incubated with HSD17B13 (80 nM), LTB4 (10 μM), and NAD+ (0.5 mM) in 10 μL assay buffer (20 mM Tris (pH 7.5), BSA (0.005%), and Tween-20 (0.01%)) at RT for 3 h. The assays were quenched by adding 20 μL of 0.15% aqueous formic acid and the plates were frozen at −80° C. RF/MS analysis was performed at PureHoney Technologies (Billerica, MA) on a RapidFire RF300 system (Agilent Technologies, Inc.) coupled to an API 4000 triple quadrupole mass spectrometer (Sciex) equipped with Agilent RapidFire cartridge type A (C4). The mobile phase was 0.09% formic acid and 0.01% trifluoracetic acid in water (Buffer A) and 0.09% formic acid and 0.01% trifluoracetic acid in 80% aqueous acetonitrile (Buffer B). The RapidFire method conditions were the following: 250 ms aspirate, 3000 ms load/desalt, 4000 ms elute, and 500 ms re-equilibrate. RF-MS/MS was performed in negative polarity (−4500 V), the source temperature was 650° C., and gas 1 and gas 2 settings for nitrogen were set to 50. The curtain gas and collision gas were also nitrogen and were set to 20 and 12, respectively. Leukotriene B4 (335.3) and 12-oxoLeukotriene B4 (333.3) SRM transitions were optimized with Discovery Quant software and extracted ion counts for these analytes were determined. Data Analysis. HSD17B13 enzyme activity was measured as percent conversion of extracted ion counts and normalized to high and low controls to determine percent residual activity at various concentrations of test compounds. […]

IC50	Compound
< 0.1 µM	COc1ccc(C#Cc2nc(S(=O)(=O)Nc3ccc(C(=O)O)cc3OC)cs2)c(C2CC2)c1 [US12384753, Example 396]
< 0.1 µM	COc1cc(C(=O)O)ccc1NS(=O)(=O)c1coc(-c2ccc(F)cc2)n1 [US12384753, Example 417]
< 0.1 µM	COc1cc(C(=O)O)ccc1NS(=O)(=O)c1coc(-c2ccc(Cl)cc2)n1 [US12384753, Example 418]
